Here are results for 18 compounds from patent US8580794B2 (AbbVie Inc., priority 2009, dated 2013).

What is called Ki is a dissociation constant, usually derived from enzyme kinetics or from competition with a known ligand.

For the assay, the target named is GST-Bc1-2 (Homo sapiens, UniProt P10415). As to the kind of experiment: Time Resolved-Fluorescence Resonance Energy Transfer (TR-FRET) Bcl-2 binding assay with F-Bak peptide probe. The conditions noted are these: GST-Bcl-2 1 nM, F-Bak probe 100 nM, Tb-anti-GST 1 nM; '<' = below limit of detection; read-out: TR-FRET Bcl-2 Binding Ki. Background: In TR-FRET formats the signal depends on donor and acceptor labels being close together.
Sequence of GST-Bc1-2 (P10415 whole entry): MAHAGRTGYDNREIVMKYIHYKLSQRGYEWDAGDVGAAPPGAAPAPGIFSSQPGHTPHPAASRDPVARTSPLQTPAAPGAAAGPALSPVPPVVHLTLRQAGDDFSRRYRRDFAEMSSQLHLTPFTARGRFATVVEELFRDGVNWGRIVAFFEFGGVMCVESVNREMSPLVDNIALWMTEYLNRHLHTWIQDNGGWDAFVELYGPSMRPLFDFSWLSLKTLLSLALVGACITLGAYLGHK

On to `CC1(C)CCC(CN2CCN(c3ccc(C(=O)NS(=O)(=O)c4ccc(NCC5CN(C6CC6)CCO5)c(Cl)c4)c(Oc4cnc5[nH]ccc5c4)c3)CC2)=C(c2ccc(Cl)cc2)C1` (stereo not drawn) [Example 332, N-[(3-chloro-4-{[(4-cyclopropylmorpholin-2-yl)methyl]amino}phenyl)sulfonyl]-4-(4-{[2-(4-chlorophenyl)-4,4-dimethylcyclohex-1-en-1-yl]methyl}piperazin-1-yl)-2-(1H-pyrrolo[2,3-b]pyridin-5-yloxy)benzamide], for which the inhibition constant Ki stood at 0.621 nM.

On to `CCN(C)C(=O)N1CCOC(CNc2ccc(S(=O)(=O)NC(=O)c3ccc(N4CCN(CC5=C(c6ccc(Cl)cc6)CC(C)(C)CC5)CC4)cc3Oc3cnc4[nH]ccc4c3)cc2Cl)C1` (stereo not drawn) [Example 333, 2-{[(2-chloro-4-{[4-(4-{[2-(4-chlorophenyl)-4,4-dimethylcyclohex-1-en-1-yl]methyl}piperazin-1-yl)-2-(1H-pyrrolo[2,3-b]pyridin-5-yloxy)benzoyl]sulfamoyl}phenyl)amino]methyl}-N-ethyl-N-methylmorpholine-4-carboxamide], for which the Ki came out at 0.511 nM.

In the case of `CCN(C)C(=O)N1CCO[C@H](COc2ncc(S(=O)(=O)NC(=O)c3ccc(N4CCN(CC5=C(c6ccc(Cl)cc6)CC(C)(C)CC5)CC4)cc3Oc3cnc4[nH]ccc4c3)cc2Cl)C1` [Example 334, (2S)-2-{[(3-chloro-5-{[4-(4-{[2-(4-chlorophenyl)-4,4-dimethylcyclohex-1-en-1-yl]methyl}piperazin-1-yl)-2-(1H-pyrrolo[2,3-b]pyridin-5-yloxy)benzoyl]sulfamoyl}pyridin-2-yl)oxy]methyl}-N-ethyl-N-methylmorpholine-4-carboxamide], the Ki was 0.572 nM.

With `CC1(C)CCC(CN2CCN(c3ccc(C(=O)NS(=O)(=O)c4cnc(NCC5CN(C6CC6)CCO5)c(Cl)c4)c(Oc4cnc5[nH]ccc5c4)c3)CC2)=C(c2ccc(Cl)cc2)C1` (stereo not drawn) [Example 335, N-[(5-chloro-6-{[(4-cyclopropylmorpholin-2-yl)methyl]amino}pyridin-3-yl)sulfonyl]-4-(4-{[2-(4-chlorophenyl)-4,4-dimethylcyclohex-1-en-1-yl]methyl}piperazin-1-yl)-2-(1H-pyrrolo[2,3-b]pyridin-5-yloxy)benzamide], the Ki turned out to be 0.15 nM.

For the compound `CCN(C)C(=O)N1CCOC(CNc2ncc(S(=O)(=O)NC(=O)c3ccc(N4CCN(CC5=C(c6ccc(Cl)cc6)CC(C)(C)CC5)CC4)cc3Oc3cnc4[nH]ccc4c3)cc2Cl)C1` (stereo not drawn) [Example 336, 2-{[(3-chloro-5-{[4-(4-{[2-(4-chlorophenyl)-4,4-dimethylcyclohex-1-en-1-yl]methyl}piperazin-1-yl)-2-(1H-pyrrolo[2,3-b]pyridin-5-yloxy)benzoyl]sulfamoyl}pyridin-2-yl)amino]methyl}-N-ethyl-N-methylmorpholine-4-carboxamide], the Ki is 0.198 nM.

For `CC1(C)CCC(CN2CCN(c3ccc(C(=O)NS(=O)(=O)c4ccc(NC5CCC(N(CCC#N)C6CC6)CC5)c([N+](=O)[O-])c4)c(Oc4cnc5[nH]ccc5c4)c3)CC2)=C(c2ccc(Cl)cc2)C1` (stereo not drawn) [Example 340, 4-(4-{[2-(4-chlorophenyl)-4,4-dimethylcyclohex-1-en-1-yl]methyl}piperazin-1-yl)-N-{[4-({4-[(2-cyanoethyl)(cyclopropyl)amino]cyclohexyl}amino)-3-nitrophenyl]sulfonyl}-2-(1H-pyrrolo[2,3-b]pyridin-5-yloxy)benzamide], the Ki is less than 0.01 nM.

For `CC1(C)CCC(CN2CCN(c3ccc(C(=O)NS(=O)(=O)c4cnc(OCC5CCc6nccn6C5)c(Cl)c4)c(Oc4cnc5[nH]ccc5c4)c3)CC2)=C(c2ccc(Cl)cc2)C1` (stereo not drawn) [Example 342, 4-(4-{[2-(4-chlorophenyl)-4,4-dimethylcyclohex-1-en-1-yl]methyl}piperazin-1-yl)-N-{[5-chloro-6-(5,6,7,8-tetrahydroimidazo[1,2-a]pyridin-6-ylmethoxy)pyridin-3-yl]sulfonyl}-2-(1H-pyrrolo[2,3-b]pyridin-5-yloxy)benzamide], the Ki is less than 0.01 nM.

On to `O=C(NS(=O)(=O)c1cnc(OCC2(F)CCN(C3COC3)CC2)c(Cl)c1)c1ccc(N2CCN(CC3=C(c4ccc(Cl)cc4)CC4(CC3)CC4)CC2)cc1Oc1cnc2[nH]ccc2c1` [Example 345, N-[(5-chloro-6-{[4-fluoro-1-(oxetan-3-yl)piperidin-4-yl]methoxy}pyridin-3-yl)sulfonyl]-4-(4-{[5-(4-chlorophenyl)spiro[2.5]oct-5-en-6-yl]methyl}piperazin-1-yl)-2-(1H-pyrrolo[2,3-b]pyridin-5-yloxy)benzamide], for which the Ki is less than 0.01 nM.

On to `CC1(C)CCC(CN2CCN(c3ccc(C(=O)NS(=O)(=O)c4ccc(NC5CCC(N6CCC(F)(F)C6)CC5)c([N+](=O)[O-])c4)c(Oc4cnc5[nH]ccc5c4)c3)CC2)=C(c2ccc(Cl)cc2)C1` (stereo not drawn) [Example 346, 4-(4-{[2-(4-chlorophenyl)-4,4-dimethylcyclohex-1-en-1-yl]methyl}piperazin-1-yl)-N-[(4-{[4-(3,3-difluoropyrrolidin-1-yl)cyclohexyl]amino}-3-nitrophenyl)sulfonyl]-2-(1H-pyrrolo[2,3-b]pyridin-5-yloxy)benzamide], for which the Ki came to 0.042 nM.

For `CC1(C)CCC(CN2CCN(c3ccc(C(=O)NS(=O)(=O)c4ccc(NC5CCC(NC6CC6(F)F)CC5)c([N+](=O)[O-])c4)c(Oc4cnc5[nH]ccc5c4)c3)CC2)=C(c2ccc(Cl)cc2)C1` (stereo not drawn) [Example 349, 4-(4-{[2-(4-chlorophenyl)-4,4-dimethylcyclohex-1-en-1-yl]methyl}piperazin-1-yl)-N-{[4-({4-[(2,2-difluorocyclopropyl)amino]cyclohexyl}amino)-3-nitrophenyl]sulfonyl}-2-(1H-pyrrolo[2,3-b]pyridin-5-yloxy)benzamide], the Ki turned out to be 0.023 nM.

Take `CC1(C)CCC(CN2CCN(c3ccc(C(=O)NS(=O)(=O)c4ccc(OCC5CCC6(CC5)COC6)c([N+](=O)[O-])c4)c(Oc4cnc5[nH]ccc5c4)c3)CC2)=C(c2ccc(Cl)cc2)C1` [Example 351, 4-(4-{[2-(4-chlorophenyl)-4,4-dimethylcyclohex-1-en-1-yl]methyl}piperazin-1-yl)-N-{[3-nitro-4-(2-oxaspiro[3.5]non-7-ylmethoxy)phenyl]sulfonyl}-2-(1H-pyrrolo[2,3-b]pyridin-5-yloxy)benzamide]: the Ki was less than 0.01 nM.

`O=C(NS(=O)(=O)c1ccc(NCC2CCOCC2)c([N+](=O)[O-])c1)c1ccc(N2CCN(CC3=C(c4ccc(Cl)cc4)CCC(CF)(CF)C3)CC2)cc1Oc1cnc2[nH]ccc2c1` [Example 353, 4-(4-{[2-(4-chlorophenyl)-5,5-bis(fluoromethyl)cyclohex-1-en-1-yl]methyl}piperazin-1-yl)-N-({3-nitro-4-[(tetrahydro-2H-pyran-4-ylmethyl)amino]phenyl}sulfonyl)-2-(1H-pyrrolo[2,3-b]pyridin-5-yloxy)benzamide]: the Ki is less than 0.01 nM.

As to `CC1(C)CCC(CN2CCN(c3ccc(C(=O)NS(=O)(=O)c4ccc(OCC5CN(C6CC6)CCO5)c([N+](=O)[O-])c4)c(Oc4cnc5[nH]ccc5c4)c3)CC2)=C(c2ccc(Cl)cc2)C1` (stereo not drawn) [Example 354, 4-(4-{[2-(4-chlorophenyl)-4,4-dimethylcyclohex-1-en-1-yl]methyl}piperazin-1-yl)-N-({4-[(4-cyclopropylmorpholin-2-yl)methoxy]-3-nitrophenyl}sulfonyl)-2-(1H-pyrrolo[2,3-b]pyridin-5-yloxy)benzamide], the inhibitory constant (Ki) was 0.01 nM.

Take `CC1(C)CCC(CN2CCN(c3ccc(C(=O)NS(=O)(=O)c4ccc(OCC5(F)CCN(C6COC6)CC5)c(C#N)c4)c(Oc4cnc5[nH]ccc5c4)c3)CC2)=C(c2ccc(Cl)cc2)C1` [Example 357, 4-(4-{[2-(4-chlorophenyl)-4,4-dimethylcyclohex-1-en-1-yl]methyl}piperazin-1-yl)-N-[(3-cyano-4-{[4-fluoro-1-(oxetan-3-yl)piperidin-4-yl]methoxy}phenyl)sulfonyl]-2-(1H-pyrrolo[2,3-b]pyridin-5-yloxy)benzamide]: the inhibition constant Ki is less than 0.01 nM.

For the compound `COCC1(C)CCC(c2ccc(Cl)cc2)=C(CN2CCN(c3ccc(C(=O)NS(=O)(=O)c4ccc(NCC5CCOCC5)c([N+](=O)[O-])c4)c(Oc4cnc5[nH]ccc5c4)c3)CC2)C1` (stereo not drawn) [Example 360, 4-(4-{[2-(4-chlorophenyl)-5-(methoxymethyl)-5-methylcyclohex-1-en-1-yl]methyl}piperazin-1-yl)-N-({3-nitro-4-[(tetrahydro-2H-pyran-4-ylmethyl)amino]phenyl}sulfonyl)-2-(1H-pyrrolo[2,3-b]pyridin-5-yloxy)benzamide], the Ki is less than 0.01 nM.

For `CC1(C)CCC(CN2CCN(c3ccc(C(=O)NS(=O)(=O)c4ccc(NC[C@H]5CN(C6COC6)CCO5)c([N+](=O)[O-])c4)c(Oc4cnc5[nH]ccc5c4)c3)CC2)=C(c2ccc(Cl)cc2)C1` [Example 361, 4-(4-{[2-(4-chlorophenyl)-4,4-dimethylcyclohex-1-en-1-yl]methyl}piperazin-1-yl)-N-{[3-nitro-4-({[(2S)-4-(oxetan-3-yl)morpholin-2-yl]methyl}amino)phenyl]sulfonyl}-2-(1H-pyrrolo[2,3-b]pyridin-5-yloxy)benzamide], the Ki was less than 0.01 nM.

As for `CC1(C)CCC(CN2CCN(c3ccc(C(=O)NS(=O)(=O)c4ccc(OCC5(F)CCC(N(CCC#N)C6CC6)CC5)c([N+](=O)[O-])c4)c(Oc4cnc5[nH]ccc5c4)c3)CC2)=C(c2ccc(Cl)cc2)C1` (stereo not drawn) [Example 363, 4-(4-{[2-(4-chlorophenyl)-4,4-dimethylcyclohex-1-en-1-yl]methyl}piperazin-1-yl)-N-{[4-({4-[(2-cyanoethyl)(cyclopropyl)amino]-1-fluorocyclohexyl}methoxy)-3-nitrophenyl]sulfonyl}-2-(1H-pyrrolo[2,3-b]pyridin-5-yloxy)benzamide], the inhibitory constant (Ki) came to 0.017 nM.

For `CC1(C)CCC(CN2CCN(c3ccc(C(=O)NS(=O)(=O)c4cnc(NCC5CCOCC5)c([N+](=O)[O-])c4)c(Oc4cnc5[nH]ccc5c4)c3)CC2)=C(c2ccc(Cl)cc2)C1` [Example 364, 4-(4-{[2-(4-chlorophenyl)-4,4-dimethylcyclohex-1-en-1-yl]methyl}piperazin-1-yl)-N-({5-nitro-6-[(tetrahydro-2H-pyran-4-ylmethyl)amino]pyridin-3-yl}sulfonyl)-2-(1H-pyrrolo[2,3-b]pyridin-5-yloxy)benzamide], the Ki is less than 0.01 nM.
